Test [1] has as its system panel of 47 common drug targets (GPCRs, ion-channels and transporters). Briefly: Binding profiling at a panel of 47 common drug targets. The settings on record: final concentration of 10 μM. The procedure: The Radioligand binding assays were conducted by the NIMH Psychoactive Drug Screening Program (PDSP). The NIMH PDSP is directed by Bryan L. Roth, MD, PhD, at the University of North Carolina at Chapel Hill, North Carolina, and Program Officer Jamie Driscoll at NIMH, Bethesda, MD. Binding assay procedures and protocols are also available online at http://pdspdb.unc.edu/pdspWeb/?site=assays. All the radioligand binding assays were performed using membranes prepared from transiently transfected HEK293T cells (purchased from ATCC, CRL-11268, authenticated by the supplier using morphology, growth characteristics, and STR profiling and certified mycoplasma-free) and in standard binding buffer (50 mM Tris, 10 mM MgCl2, 0.1 mM EDTA, 0.1% BSA, 0.01% ascorbic acid, pH 7.4) as recently reported ([Stauch et al., 2019]). […] Assay plates were sealed and incubated for 4 hr at 37°C in a humidified incubator until harvesting. Plates were harvested using vacuum filtration onto 0.3% polyethyleneimine pre-soaked 96-well Filtermat A (PerkinElmer) and washed three times with cold wash buffer (50 mM Tris, pH 7.4). Filters were dried and melted with a scintillation cocktail (Meltilex, PerkinElmer). Radioactivity was counted using a Wallac TriLux Microbeta counter (PerkinElmer). Results were analyzed using GraphPad Prism 7.0.

The target in test [2] is T1, MT2 (Homo sapiens, UniProt P49286).
T1 sequence (P49286 1-362): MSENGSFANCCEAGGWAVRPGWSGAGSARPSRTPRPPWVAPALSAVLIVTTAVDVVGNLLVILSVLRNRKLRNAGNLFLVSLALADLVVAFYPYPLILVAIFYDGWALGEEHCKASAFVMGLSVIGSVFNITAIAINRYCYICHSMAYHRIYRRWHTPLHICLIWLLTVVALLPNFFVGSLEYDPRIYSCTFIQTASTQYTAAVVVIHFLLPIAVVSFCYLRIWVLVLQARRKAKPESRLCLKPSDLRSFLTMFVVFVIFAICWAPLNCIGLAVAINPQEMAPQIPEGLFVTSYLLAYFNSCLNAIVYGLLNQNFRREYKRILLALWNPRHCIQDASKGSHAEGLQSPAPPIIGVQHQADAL
Briefly: [3H]melatonin competition radioligand binding, MT2 membranes. More on the design: expressed in transfected cells; host or cells: HEK293T (ATCC CRL-11268), transient transfection. Particulars: read-out: MT2 pKi ± SEM (converted). The procedure:
(§1) The Radioligand binding assays were conducted by the NIMH Psychoactive Drug Screening Program (PDSP). The NIMH PDSP is directed by Bryan L. Roth, MD, PhD, at the University of North Carolina at Chapel Hill, North Carolina, and Program Officer Jamie Driscoll at NIMH, Bethesda, MD. Binding assay procedures and protocols are also available online at http://pdspdb.unc.edu/pdspWeb/?site=assays. […] Assay plates were sealed and incubated for 4 hr at 37°C in a humidified incubator until harvesting. Plates were harvested using vacuum filtration onto 0.3% polyethyleneimine pre-soaked 96-well Filtermat A (PerkinElmer) and washed three times with cold wash buffer (50 mM Tris, pH 7.4). Filters were dried and melted with a scintillation cocktail (Meltilex, PerkinElmer). Radioactivity was counted using a Wallac TriLux Microbeta counter (PerkinElmer). Results were analyzed using GraphPad Prism 7.0.

Test [3] addresses T2, MT1 (Homo sapiens, UniProt P48039).
T2 construct: expressed in transfected cells; host or cells: HEK293T (ATCC CRL-11268), transient transfection
Briefly: GloSensor Gi/o-mediated cAMP production inhibition assay, MT1. It is filed as cell-based. Particulars: for EC50: Gi/o mediated. Here is the method:
(§2) Briefly, HEK293 T cells (as above) were transiently co-transfected with receptor (MT1 or MT2) and GloSensor cAMP (Promega) plasmids overnight, plated in Poly-L-Lysine coated 384-well white clear bottom plates in DMEM + 1% dialyzed FBS. Cells were used for assays at a minimum of 6 hr after plating. Culture medium was first removed and cells were stimulated with drugs in assay buffer (1x HBSS, 20 mM HEPES, 1 mg/ml BSA, 0.1 mg/ml ascorbic acid, pH 7.4) for 15 min at room temperature (this and all the following steps), followed by addition of a mixture of isoproterenol (final of 100 nM) and luciferin (final of 1 mM) for Gi/o-cAMP production inhibition assays and luciferin (final of 1 mM) for Gs-cAMP production assays. The plates were counted for luminescence after 25 min in a luminescence plate reader. Results were analyzed using GraphPad Prism 7.0.

Test [4] has as its target T2, MT1. Briefly: [3H]melatonin competition radioligand binding, MT1 membranes. Particulars: read-out: MT1 pKi ± SEM (converted). The procedure: as §1
Test [5] has as its target T1, MT2. Briefly: Tango β-arrestin recruitment assay, MT2. The class given is cell-based. More on the design: expressed in transfected cells; transient transfection. The settings on record: result in words; compared to G-protein. The procedure: Tango arrestin recruitment assays were carried out according to the previously published procedure [Kroeze et al. (2015)]. In brief, HTLA cells were transiently transfected with receptor TANGO DNA constructs overnight in DMEM with 10% FBS. Transfected cells were then plated into poly-L-Lys coated 384-well plates using DMEM supplemented with 1% dialyzed FBS. After 6 hr incubation, drug dilutions, prepared in DMEM with 1% dFBS, were added for incubation overnight (16–20 hr). Medium and drug solutions were removed, Bright-Glo reagent (20 uL/well) was added for luminescence counting 20 min later. Results were analyzed in GraphPad Prism 7.0.

Test [6] has as its target T1, MT2. Briefly: Bias factor, Gi-cAMP versus Tango (Black and Leff operational model), MT2. It is filed as cell-based. More on the design: expressed in transfected cells; host or cells: HEK293T (ATCC CRL-11268), transient transfection. The settings on record: G-protein over β-arrestin at MT2; reference melatonin; 10^ΔΔLog(τ/KA). The procedure: Bias factors were estimated according to the published procedure [Kenakin et al. (2012)] with modifications. Briefly, normalized and pooled results were analyzed by fitting the Black and Leff operational model in Prism 7.0 to obtain Log(τ/KA) values for each pathway (Tango and Gi-cAMP). Within each signaling pathway, a difference of Log(τ/KA), ΔLog(τ/KA), between a test compound and selected reference (melatonin in this case) was calculated. For a testing compound, the difference of ΔLog(τ/KA), ΔΔLog(τ/KA), was then obtained between two pathways. The bias factor is 10^ΔΔLog(τ/KA).

Test [7] addresses T1, MT2. Briefly: GloSensor Gi/o-mediated cAMP production inhibition assay, MT2. More on the design: expressed in transfected cells; host or cells: HEK293T (ATCC CRL-11268), transient transfection. The class given is cell-based. The settings on record: for MT2/MT1 Selectivity: Antilog (log(Emax/EC50) MT2 - log (Emax/EC50) MT1), values below 1 = MT1 selectivity; for EC50: Gi/o mediated; for Emax: MT2, activation compared to melatonin, read-out: MT2 Emax ± SEM; for MT2 LE: ligand efficiency (based on EC50). The procedure: as §2

The target of test [8] is T3, MT1 wildtype (WT) (Homo sapiens, UniProt P48039).
T3 construct: host or cells: HTLA cells (HEKT based)
Briefly: Tango β-arrestin recruitment assay, MT1 wildtype. It is filed as cell-based. Here is the method: (§3) In brief, HTLA cells were transiently transfected with receptor TANGO DNA constructs overnight in DMEM with 10% FBS. Transfected cells were then plated into poly-L-Lys coated 384-well plates using DMEM supplemented with 1% dialyzed FBS. After 6 hr incubation, drug dilutions, prepared in DMEM with 1% dFBS, were added for incubation overnight (16–20 hr). Medium and drug solutions were removed, Bright-Glo reagent (20 uL/well) was added for luminescence counting 20 min later. Results were analyzed in GraphPad Prism 7.0.

The target in test [9] is T4, MT1 N162Q mutant receptor (Homo sapiens, UniProt P48039, N162Q).
T4 construct: expressed in transfected cells; host or cells: HTLA cells (HEKT based)
Briefly: Tango β-arrestin recruitment assay, MT1 N162Q mutant. It is filed as cell-based. The procedure:
as §3

For test [10], the target named is T5, MT1 Y281F mutant receptor (Homo sapiens, UniProt P48039, Y281F).
T5 construct: expressed in transfected cells; host or cells: HTLA cells (HEKT based)
Briefly: Tango β-arrestin recruitment assay, MT1 Y281F mutant. It is filed as cell-based. The settings on record: normalized individually (basal 0%, maximum 100%); mean ± SEM, minimum of 3 assays; read-out: pEC50, Tango, MT1 Y281F (converted). The procedure:
as §3

Here are results for two compounds from paper PMC7080406 (eLife, 2020).

Where “and” joins values, the source holds several entries; their conditions need not be identical. Equal values may be shown once. Entries after “also recorded” stand apart in the source; their conditions may differ. Read-outs that look alike come from different tables or passages of the source.

T2 sequence (P48039 whole entry): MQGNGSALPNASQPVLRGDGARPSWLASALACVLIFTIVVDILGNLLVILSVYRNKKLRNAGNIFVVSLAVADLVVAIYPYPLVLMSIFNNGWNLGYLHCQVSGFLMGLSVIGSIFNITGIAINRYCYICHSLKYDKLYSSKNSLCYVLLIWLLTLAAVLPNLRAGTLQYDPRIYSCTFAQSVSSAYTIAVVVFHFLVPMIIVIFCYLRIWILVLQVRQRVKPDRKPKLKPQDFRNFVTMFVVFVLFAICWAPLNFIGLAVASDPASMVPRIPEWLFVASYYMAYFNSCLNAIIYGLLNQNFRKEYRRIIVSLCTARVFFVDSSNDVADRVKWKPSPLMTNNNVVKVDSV
T3 sequence (P48039 whole entry): as above
T4 sequence (P48039 whole entry N162Q): as the sequence (P48039 whole entry) above, with N162Q counted along it
T5 sequence (P48039 whole entry Y281F): as the sequence (P48039 whole entry) above, with Y281F counted along it

Regarding `COc1ccnc(N(C)CCNC(C)=O)n1` [Compound 21, N-{2-[(4-methoxypyrimidin-2-yl)(methyl)amino]ethyl}acetamide], in [1], the “binding at panel of 47 common drug targets” value was “did not show any substantial binding”. In addition, the Ki in test [2] is 123 nM; in [4] it was 490 nM. The EC50 in test [3] (SEM, N = 3, read-out: MT1 pEC50 ± SEM (converted)) was 12.3 nM; in [3] (read-out: MT1 EC50) it was 12 nM; in test [7] (SEM, N = 3, read-out: MT2 pEC50 ± SEM (converted)), 0.363 nM. Besides, the “MT1 LE” value in [3] (ligand efficiency (based on EC50)) is 0.69 kcal/mol per non-hydrogen atom. Also, the maximal effect (Emax) in [3] (read-out: MT1 Emax ± SEM) worked out at 93.8 ± 2.5%; in test [7] it was 86.1 ± 3.2%. The “β-arrestin signaling / arrestin recruitment at MT2” value in [5] is “dramatically reduced arrestin recruitment; also recorded: marked reduction in β-arrestin signaling compared to G-protein”. The same compound gave a bias factor in test [6] of 15.5. In addition, the “MT2/MT1 Selectivity” value in [7] was 30 fold and 30.6 fold. The “MT2 LE” value in test [7] was 0.83 kcal/mol per non-hydrogen atom.
Regarding `COc1cccc(CNc2nc(C3CC3)no2)c1` [Compound 37, 3-cyclopropyl-N-[(3-methoxyphenyl)methyl]-1,2,4-oxadiazol-5-amine], the EC50 in [8] (normalized individually (basal 0%, maximum 100%), mean ± SEM, minimum of 3 assays, read-out: pEC50, Tango, MT1 WT (converted)) is 4170 nM; in [3] (read-out: MT1 EC50), > 30000 nM; in test [9] (normalized individually (basal 0%, maximum 100%), mean ± SEM, minimum of 3 assays, read-out: pEC50, Tango, MT1 N162Q (converted)), 2240 nM; in [7] (read-out: MT2 EC50), 141 nM; in test [10], 11700 nM. The “β-arrestin activity at MT1” value in test [8] (result in words) is “substantial β-arrestin activity”. The “binding at panel of 47 common drug targets” value in test [1] was “did not show any substantial binding”. The Ki is 3550 nM in test [2] and 8510 nM in test [4]. Besides, the “G-protein (Gi) signaling at MT1” value in test [3] (result in words) was “devoid of Gi signaling; also recorded: completely lacks G-protein signaling”. In test [9] (Tango), the “increase of potency, MT1 N162Q versus WT” value is reported as 2 fold. Further, the “MT2/MT1 Selectivity” value in test [7] is >1000.0 fold. Besides, the Emax in test [7] was found to be 61.1 ± 9.1%. For the same compound, in test [7], the “MT2 LE” value was 0.53 kcal/mol per non-hydrogen atom.
